In patent publication US11091497B2, “Pyrano[3,4-b]pyrazine kappa opioid receptor ligands for treating addiction, pruritus, pain, and inflammation” (The Rockefeller University, priority 2017, dated 2021):
Like-named read-outs stand apart in the source and are kept apart here.

Legend:
[1] = target: T1, kappa opioid receptor (PathHunter U2OS hOPRK1 membranes) (Homo sapiens, UniProt P41145); assay: Tritiated U69,593 binding for KOP-R membranes
T1 construct: host or cells: U2OS (PathHunter U2OS hOPRK1 β-arrestin cell line)
Method: Tritiated U69,593 binding for KOP-R membranes; tritiated DAMGO binding for MOP-R membranes; and tritiated DPDPE binding for DOP-R membranes:
(§1) Membranes from cells stably expressing kappa, mu or delta opioid receptor constructs (PathHunter U2OS hOPRK1, CHO-K1 rOPRM1 and CHO-K1 OPRD1 β-arrestin cell line, DiscoverX, Fremont, Calif., USA) were used. Cells were scraped from tissue culture plates, homogenized with a tissue tearor homogenizer in membrane buffer (10 mM Tris, 100 mM NaCl, and 1 mM EDTA; pH 7.4), and centrifuged at 20,000 g for 30 minutes at 4° C. and frozen at −80° C. until use. Prior to use, the pellets were resuspended in binding buffer (50 mm Tris, 100 mm NaCl, pH 7.4), homogenized with a dounce homogenizer and […] incubated with 1.0 nM of the appropriate tritiated ligand ([^3H]U69,593, [^3H]DAMGO or [^3H]DPDPE for kappa, mu or delta binding, respectively) and the appropriate concentration of compound for 60 minutes at 30° C. Membranes with bound tritiated ligand were collected on Whatman GF/B filter paper (Brandel, Gaithersburg, Md., USA) utilizing a Brandel harvester. Bound tritiated ligand was quantified using a TriCarb-2900TR scintillation counter (Packard, Downers Grove, Ill., USA) following addition of 4 ml ReadySafe scintillation fluid (Beckman Coulter, Indianapolis, Ind., USA). Compiled data for each compound was normalized to the maximal binding in the absence of compound, with non-specific binding subtracted. Curve fitting was done in Microcal Origin 17.0 software using logistic sigmoidal fit, to determine IC50. GTPgammaS Membranes from U2OS cells stably expressing human kappa opioid receptors were used. Cells were scraped from tissue culture plates, homogenized with a tissue tearor homogenizer in membrane buffer (10 mM Tris, 100 mM NaCl, and 1 mM EDTA; pH 7.4), and centrifuged at 20,000 g for 30 minutes at 4° C. and frozen at −80° C. until use. Prior to use, the pellets were resuspended in assay buffer (50 mm Tris, 100 mm NaCl, 5 mM MgCl2, and 1 mM EDTA; pH 7.4) and homogenized with a dounce homogenizer and 50 μg incubated with 0.1 nM [35 S]GTPγS, 10 nM GDP, and the appropriate concentration of agonist for 20 minutes at 30° C. To test inhibition, all samples were incubated with 100 nM U69,593 as well as the appropriate concentration of compound. Membranes with bound [35 S]GTPγS were collected on Whatman GF/B filter paper (Brandel, Gaithersburg, Md., USA) utilizing a Brandel harvester. Bound [35 S]GTPγS was quantified using a TriCarb-2900TR scintillation counter (Packard, Downers Grove, Ill., USA) following addition of 4 mL ReadySafe scintillation fluid (Beckman Coulter, Indianapolis, Ind., USA). […] NA indicates not applicable. For each compound, curve fitting was done in Microcal Origin 17.0 software using logistic sigmoidal fit, to determine EC50 and maximal percent stimulation, which in turn was normalized to the maximal percent stimulation of the test full agonist compound U69,593 to determine % efficacy. β2-Arrestin Experiments were conducted using the PathHunter Detection Kit obtained from DiscoverX. Cells stably expressing kappa, mu or delta opioid receptor constructs (PathHunter U2OS hOPRK1, CHO-K1 rOPRM1 and CHO-K1 OPRD1 β-arrestin cell line, DiscoverX, Fremont, Calif., USA) were plated in 96- or 384-well plates. Cells were stimulated with the compounds for 90 minutes at 37° C. To test inhibition, all samples were incubated with 100 nM U69,593 as well as the appropriate concentration of compound. Cells were then incubated for 60 minutes in the presence of galoctosidase substrate, yielding chemiluminescent product. Chemiluminescence was measured using a Synergy Neo microplate reader (BioTek, Winooski, Vt., USA). Antagonism assays were done in the same manner, in the presence of 300 nM U69,593, 1 μM DAMGO or 1 μM DPDPE for KOP-R, MOP-R or DOP-R assays, respectively. […] NA indicates not applicable. […]

[2] = target: T2, human kappa opioid receptors (Homo sapiens, UniProt P41145); assay: [35S]GTPγS stimulation, membranes from U2OS cells; format: biochemical; details: for Emax: read-out: GTPγS stimulation % efficacy
T2 construct: expressed in transfected cells; host or cells: U2OS
Method: Membranes from cells stably expressing kappa, mu or delta opioid receptor constructs (PathHunter U2OS hOPRK1, CHO-K1 rOPRM1 and CHO-K1 OPRD1 β-arrestin cell line, DiscoverX, Fremont, Calif., USA) were used. Cells were scraped from tissue culture plates, homogenized with a tissue tearor homogenizer in membrane buffer (10 mM Tris, 100 mM NaCl, and 1 mM EDTA; pH 7.4), and centrifuged at 20,000 g for 30 minutes at 4° C. and frozen at −80° C. until use. Prior to use, the pellets were resuspended in binding buffer (50 mm Tris, 100 mm NaCl, pH 7.4), homogenized with a dounce homogenizer and […] incubated with 1.0 nM of the appropriate tritiated ligand ([^3H]U69,593, [^3H]DAMGO or [^3H]DPDPE for kappa, mu or delta binding, respectively) and the appropriate concentration of compound for 60 minutes at 30° C. Membranes with bound tritiated ligand were collected on Whatman GF/B filter paper (Brandel, Gaithersburg, Md., USA) utilizing a Brandel harvester. Bound tritiated ligand was quantified using a TriCarb-2900TR scintillation counter (Packard, Downers Grove, Ill., USA) following addition of 4 ml ReadySafe scintillation fluid (Beckman Coulter, Indianapolis, Ind., USA). Compiled data for each compound was normalized to the maximal binding in the absence of compound, with non-specific binding subtracted. Curve fitting was done in Microcal Origin 17.0 software using logistic sigmoidal fit, to determine IC50. GTPgammaS Membranes from U2OS cells stably expressing human kappa opioid receptors were used. Cells were scraped from tissue culture plates, homogenized with a tissue tearor homogenizer in membrane buffer (10 mM Tris, 100 mM NaCl, and 1 mM EDTA; pH 7.4), and centrifuged at 20,000 g for 30 minutes at 4° C. and frozen at −80° C. until use. Prior to use, the pellets were resuspended in assay buffer (50 mm Tris, 100 mm NaCl, 5 mM MgCl2, and 1 mM EDTA; pH 7.4) and homogenized with a dounce homogenizer and 50 μg incubated with 0.1 nM [35 S]GTPγS, 10 nM GDP, and the appropriate concentration of agonist for 20 minutes at 30° C. To test inhibition, all samples were incubated with 100 nM U69,593 as well as the appropriate concentration of compound. Membranes with bound [35 S]GTPγS were collected on Whatman GF/B filter paper (Brandel, Gaithersburg, Md., USA) utilizing a Brandel harvester. Bound [35 S]GTPγS was quantified using a TriCarb-2900TR scintillation counter (Packard, Downers Grove, Ill., USA) following addition of 4 mL ReadySafe scintillation fluid (Beckman Coulter, Indianapolis, Ind., USA). […] For each compound, curve fitting was done in Microcal Origin 17.0 software using logistic sigmoidal fit, to determine EC50 and maximal percent stimulation, which in turn was normalized to the maximal percent stimulation of the test full agonist compound U69,593 to determine % efficacy. β2-Arrestin Experiments were conducted using the PathHunter Detection Kit obtained from DiscoverX. Cells stably expressing kappa, mu or delta opioid receptor constructs (PathHunter U2OS hOPRK1, CHO-K1 rOPRM1 and CHO-K1 OPRD1 β-arrestin cell line, DiscoverX, Fremont, Calif., USA) were plated in 96- or 384-well plates. Cells were stimulated with the compounds for 90 minutes at 37° C. To test inhibition, all samples were incubated with 100 nM U69,593 as well as the appropriate concentration of compound. Cells were then incubated for 60 minutes in the presence of galoctosidase substrate, yielding chemiluminescent product. Chemiluminescence was measured using a Synergy Neo microplate reader (BioTek, Winooski, Vt., USA). Antagonism assays were done in the same manner, in the presence of 300 nM U69,593, 1 μM DAMGO or 1 μM DPDPE for KOP-R, MOP-R or DOP-R assays, respectively.

[3] = target: T3, kappa opioid receptor (PathHunter U2OS hOPRK1 β-arrestin cell line) (Homo sapiens, UniProt P41145); assay: β-arrestin coupling (PathHunter Detection Kit); format: cell-based; details: for Emax at 10 µM: U2OS; for β-arrestin coupling EC50: 90 minutes at 37° C.; for β-arrestin coupling EC50 / β-arrestin coupling % efficacy: No stim = no stimulation at highest dose tested, 10,000 nM; for β-arrestin coupling % efficacy: maximal, normalized to U69,593
T3 construct: host or cells: U2OS (PathHunter U2OS hOPRK1 β-arrestin cell line)
Method: as §1

[4] = 1.0 nM [3H]U69,593, 60 minutes at 30° C., read-out: Binding IC50
[5] = read-out: β-arrestin coupling % efficacy at 10 μM
[6] = read-out: β-arrestin coupling % efficacy

T1 sequence (P41145 whole entry): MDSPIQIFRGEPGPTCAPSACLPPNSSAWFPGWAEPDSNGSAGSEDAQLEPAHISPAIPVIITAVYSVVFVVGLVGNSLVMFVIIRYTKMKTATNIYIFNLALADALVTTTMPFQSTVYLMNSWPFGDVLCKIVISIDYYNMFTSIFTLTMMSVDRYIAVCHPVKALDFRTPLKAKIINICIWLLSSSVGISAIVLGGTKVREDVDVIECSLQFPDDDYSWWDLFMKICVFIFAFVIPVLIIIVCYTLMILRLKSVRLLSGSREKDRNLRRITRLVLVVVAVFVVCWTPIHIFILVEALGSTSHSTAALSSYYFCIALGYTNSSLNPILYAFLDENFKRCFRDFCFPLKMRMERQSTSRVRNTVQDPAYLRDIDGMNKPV
T3 sequence (P41145 whole entry): as above
T2 sequence (P41145 whole entry): as above

Compound | IC50 [1, 4] [nM] | EC50 [2] [nM] | Emax [2] [%] | Emax at 10 µM [3, 5] [%] | IC50 [1] [nM] | EC50 [3] [nM] | Emax at 10 µM [3, 6] [%] | β-arrestin coupling EC50 [3] | β-arrestin coupling % efficacy [3]
O=C(Cc1cccc(Cl)c1)N1CCN[C@H]2COC[C@@H](N3CCCC3)[C@@H]21 (single isomer, unassigned) [Example 5A24B] | 1130 | 1370 | 102 | 0 |  |  |  |  | 
COC(=O)N1CCN(C(=O)Cc2ccc(Cl)c(Cl)c2)[C@H]2[C@H]1COC[C@@H]2N1CCCC1 (racemic) [Example 5A67] |  | 12 | 85 |  | 41 | 5200 | 85 |  | 
Cc1cc(CC(=O)N2CCN[C@@H]3COC[C@H](N4CCCC4)[C@H]32)ccc1Cl (racemic) [Example 5A58] | 116 | 261 | 161 | 20 |  |  |  |  | 
O=C(Cc1cc(Cl)cc(Cl)c1)N1CCN[C@@H]2COC[C@H](N3CCCC3)[C@H]21 (racemic) [Example 5A32] | 410 | 464 | 66.5 |  |  |  |  | No stim | No stim
O=C(Cc1cccc(Cl)c1Cl)N1CCN[C@@H]2COC[C@H](N3CCCC3)[C@H]21 (racemic) [Example 5A48] | 1040 | 21800 | 181 |  |  |  |  |  | No stim
O=C(Cc1ccc(Cl)c(Cl)c1)N1CCN(Cc2ccccc2)[C@@H]2COC[C@H](N3CCCC3)[C@H]21 (racemic) [Example 5A53, 1-[4-benzyl-8-pyrrolidin-1-yl-3,4a,5,7,8,8a-hexahydro-2H-pyrano(3,4-b)pyrazin-1-yl]-2-(3,4-dichlorophenyl)ethanone] |  | 12 | 82 | 80 | 40 |  |  |  | 
O=C(Cc1ccc(Cl)c(Cl)c1)N1CCN(CC2CCC2)[C@H]2COC[C@@H](N3CCCC3)[C@@H]21 (single isomer, unassigned) [Example 5A55B] |  | 13 | 62 | 80 | 20 |  |  |  | 
CS(=O)(=O)N1CCN(C(=O)Cc2ccc(Cl)c(Cl)c2)[C@H]2[C@H](N3CCCC3)COC[C@@H]21 (single isomer, unassigned) [Example 5A44B] |  | 4.6 | 105 | 70 | 18 |  |  |  | 
O=C(Cc1ccc(Cl)c(C(F)(F)F)c1)N1CCN[C@@H]2COC[C@H](N3CCCC3)[C@H]21 (racemic) [Example 5A46] |  | 6.3 | 131 | 100 | 15 |  |  |  | 
O=C(Cc1ccc(Cl)c(Cl)c1)N1CCN(CC2CCC2)[C@@H]2COC[C@H](N3CCCC3)[C@H]21 (racemic) [Example 5A55] |  | 21 | 67 | 40 | 57 |  |  |  | 
O=C(Cc1ccc(F)c(Cl)c1)N1CCN[C@@H]2COC[C@H](N3CCCC3)[C@H]21 (racemic) [Example 5A25] | 249 | 571 | 93 |  |  | 13600 | 29 |  | 
O=C(Cc1cccc(Cl)c1)N1CCN[C@@H]2COC[C@H](N3CCCC3)[C@H]21 (single isomer, unassigned) [Example 5A24A] | 463 | 384 | 115 | 0 |  |  |  |  | 
Cc1ccc(CC(=O)N2CCN[C@@H]3COC[C@H](N4CCCC4)[C@H]32)cc1C (racemic) [Example 5A40] | 719 | 1700 | 111 |  |  |  |  | No stim | No stim
CC(C)CN1CCN(C(=O)Cc2ccc(Cl)c(Cl)c2)[C@H]2[C@H]1COC[C@@H]2N1CCCC1 [Example 5A71] |  | 14 | 93 | 40 | 27 |  |  |  | 
O=C(Cc1ccc(Cl)c(Cl)c1)N1CCN(CC2CC2)[C@@H]2COC[C@H](N3CCCC3)[C@H]21 (racemic) [Example 5A70] |  | 19 | 90 | 50 | 71 |  |  |  | 
